Structures are written as SMILES.

These results are taken from EP2492354A1, “Method for identifying compounds useful in the treatment of photosensitive reflex epilepsy” (Institut National De La Recherche Agronomique (INRA), priority 2011, dated 2012).

The conditions of series [1]: cited from earlier work.
Series [2] deals with Fepi. Put plainly: Intermittent Light Stimulation (ILS) induced seizures in the photosensitive reflex epileptic chicken model. The series is classed as in vivo. Here is the method:
During 21 days, they were exposed to ILS (3 minutes) once a day.
Behavioural activities were observed and time recorded for each phase of the paroxysmal manifestation during controlled intermittent light stimulation: • T0: ILS starts • T1 (time in seconds): neck myoclonus starts • T2 (time in seconds): convulsive phase starts • T3 (time in seconds): convulsive phase ends
The first day they were tested for control and all had ILS induced seizures. […]
During the last 10 days, none of the animals was treated.
The influence of the treatment on the stimulus locked myoclonus and generalized convulsions of the photosensitive GRS was evaluated using generalized linear models implemented in the function glm of the software R, version 2.9.0. The number of seizures for each animal over a given phase of the experiment (with treatment and following treatment) was modeled using a binomial distribution, and linked to factors using the logit function. The delay for seizure initiation, the duration of the myoclonus and the duration of the convulsions were modeled using gamma distributions, and linked to the factors using the identity function. Sex was included as an additive co-factor in the analyses but not significant differences were found.

The subject of series [3] is plasma proteins. The settings on record: cited from earlier work.

With `CC[C@@H](C(N)=O)N1CCCC1=O` [(S)-a-ethyl-2-oxo-1-pyrrolidine acetamide], the “dose range over which the pharmacokinetics are linear” value in series [1] (in vivo) is 500 to 5000 mg. For the same compound, in series [1] (oral administration to fasted subjects), the “time to peak plasma concentrations” value was “one”. For the same compound, in series [1] (oral, with food), the “decrease of Cmax by food” value is reported as 20% and the “delay of Tmax by food” value was 1.5 h. The oral bioavailability in series [1] (tablets) is given as 100%. In series [1] (twice-daily dosing), the “time to steady state” value is listed as 2 days. The anticonvulsant effect result in series [2] (chicken model of the invention) was “has an anticonvulsant effect”. The “persistence of the effect after the injection period” value in series [2] (last 10 days without treatment) was “the effect partially persisting few days after the injection period”. Also, the “seizure duration (on average)” value in series [2] (treated (50, 100 or 200 mg/Kg) homozygous, placebo 16.2 s, p-value 1 e-08) stood at 10.7 s. The “bound to plasma proteins” value in series [3] is “less than 10%”.
